From article PMC9927415, “Tyrosine Kinase Inhibitors Display Potent Activity against Cryptosporidium parvum” (Microbiology Spectrum, 2022) come the findings set out here.

Holding throughout (assay): KINOMEscan competitive binding, whole panel
For test [1], the target named is T1, panel of 203 kinases (Homo sapiens, UniProt P00519).
T1 construct: purchased DiscoverX (KINOMEscan)
The following applies: 10 µM, n=1; kinase ABL1; read-out: Percent inhibition ABL1. Summed up: (§1)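 Kinases expressed as T7 bacteriophage fusions; test compound competes with an immobilized ATP-site probe ligand. Kinase still bound to the solid support was quantified and expressed as percentage inhibition.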

Test [2] addresses T2, panel of 203 kinases (Homo sapiens, UniProt O94768).
T2 construct: purchased DiscoverX (KINOMEscan)
T2 sequence (O94768 1-372): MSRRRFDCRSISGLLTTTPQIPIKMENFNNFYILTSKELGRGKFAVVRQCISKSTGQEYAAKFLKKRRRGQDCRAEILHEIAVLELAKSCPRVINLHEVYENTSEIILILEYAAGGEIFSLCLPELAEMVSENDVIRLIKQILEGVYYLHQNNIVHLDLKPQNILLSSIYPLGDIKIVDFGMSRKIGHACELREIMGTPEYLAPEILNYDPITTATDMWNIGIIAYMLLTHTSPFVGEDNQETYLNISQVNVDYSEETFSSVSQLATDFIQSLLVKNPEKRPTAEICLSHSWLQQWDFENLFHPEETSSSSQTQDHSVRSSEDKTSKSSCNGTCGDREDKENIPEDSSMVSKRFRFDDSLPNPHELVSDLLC
The following applies: 10 µM, n=1; kinase DRAK2; read-out: Percent inhibition DRAK2. In outline: as §1

Test [3] addresses T3, panel of 203 kinases (Homo sapiens, UniProt Q9P0L2).
T3 construct: purchased DiscoverX (KINOMEscan)
The following applies: 10 µM, n=1; kinase MARK1; read-out: Percent inhibition MARK1. Summed up: as §1

In test [4] the target is T4, panel of 203 kinases (Homo sapiens, UniProt Q13043).
T4 construct: purchased DiscoverX (KINOMEscan)
T4 sequence (Q13043 1-487): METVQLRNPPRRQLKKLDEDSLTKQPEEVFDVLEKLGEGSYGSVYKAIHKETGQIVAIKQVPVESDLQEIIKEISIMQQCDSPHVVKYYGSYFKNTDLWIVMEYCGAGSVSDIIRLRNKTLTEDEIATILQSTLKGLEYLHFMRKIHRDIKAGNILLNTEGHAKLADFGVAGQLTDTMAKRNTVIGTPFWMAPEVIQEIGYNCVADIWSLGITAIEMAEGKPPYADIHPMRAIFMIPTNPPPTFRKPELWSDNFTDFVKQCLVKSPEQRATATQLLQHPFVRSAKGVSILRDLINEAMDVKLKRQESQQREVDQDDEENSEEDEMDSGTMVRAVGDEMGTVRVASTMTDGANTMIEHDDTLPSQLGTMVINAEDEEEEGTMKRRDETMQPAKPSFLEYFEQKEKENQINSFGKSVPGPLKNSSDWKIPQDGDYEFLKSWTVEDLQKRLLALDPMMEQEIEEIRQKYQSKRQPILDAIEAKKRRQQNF
The following applies: 10 µM, n=1; kinase MST1; read-out: Percent inhibition MST1. In outline: as §1

Test [5] deals with T5, panel of 203 kinases (Homo sapiens, UniProt Q15375).
T5 construct: purchased DiscoverX (KINOMEscan)
T5 sequence (Q15375 28-998): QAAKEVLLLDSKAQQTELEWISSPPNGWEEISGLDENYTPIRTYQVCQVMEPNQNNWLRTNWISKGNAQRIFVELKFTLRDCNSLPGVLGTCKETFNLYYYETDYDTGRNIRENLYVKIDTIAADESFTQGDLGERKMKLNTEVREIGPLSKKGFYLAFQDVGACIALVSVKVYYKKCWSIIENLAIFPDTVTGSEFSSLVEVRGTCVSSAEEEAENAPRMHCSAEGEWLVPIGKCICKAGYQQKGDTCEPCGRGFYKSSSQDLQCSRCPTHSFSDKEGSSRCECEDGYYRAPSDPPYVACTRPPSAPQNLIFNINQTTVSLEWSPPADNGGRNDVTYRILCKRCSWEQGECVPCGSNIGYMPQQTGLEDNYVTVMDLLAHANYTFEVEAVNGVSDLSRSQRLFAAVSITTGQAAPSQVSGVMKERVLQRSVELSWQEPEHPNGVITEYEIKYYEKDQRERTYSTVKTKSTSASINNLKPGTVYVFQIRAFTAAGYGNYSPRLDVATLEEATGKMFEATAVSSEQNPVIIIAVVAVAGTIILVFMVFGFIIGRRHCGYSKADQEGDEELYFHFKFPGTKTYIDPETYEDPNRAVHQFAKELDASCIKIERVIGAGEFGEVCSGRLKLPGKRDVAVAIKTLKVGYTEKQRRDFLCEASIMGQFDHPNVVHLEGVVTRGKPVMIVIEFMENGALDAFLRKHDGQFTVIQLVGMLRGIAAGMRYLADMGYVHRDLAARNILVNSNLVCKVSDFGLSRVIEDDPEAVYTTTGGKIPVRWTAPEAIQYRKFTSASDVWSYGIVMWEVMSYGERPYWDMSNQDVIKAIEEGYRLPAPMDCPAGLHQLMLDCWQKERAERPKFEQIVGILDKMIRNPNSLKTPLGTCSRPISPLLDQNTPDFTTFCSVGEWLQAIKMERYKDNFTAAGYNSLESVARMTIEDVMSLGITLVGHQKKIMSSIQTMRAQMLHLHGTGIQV
To be noted: 10 µM, n=1; kinase EPHA7; read-out: Percent inhibition EPHA7. In outline:
as §1

Test [6] deals with T6, panel of 203 kinases (Homo sapiens, UniProt P37023).
T6 construct: purchased DiscoverX (KINOMEscan)
T6 sequence (P37023 22-503): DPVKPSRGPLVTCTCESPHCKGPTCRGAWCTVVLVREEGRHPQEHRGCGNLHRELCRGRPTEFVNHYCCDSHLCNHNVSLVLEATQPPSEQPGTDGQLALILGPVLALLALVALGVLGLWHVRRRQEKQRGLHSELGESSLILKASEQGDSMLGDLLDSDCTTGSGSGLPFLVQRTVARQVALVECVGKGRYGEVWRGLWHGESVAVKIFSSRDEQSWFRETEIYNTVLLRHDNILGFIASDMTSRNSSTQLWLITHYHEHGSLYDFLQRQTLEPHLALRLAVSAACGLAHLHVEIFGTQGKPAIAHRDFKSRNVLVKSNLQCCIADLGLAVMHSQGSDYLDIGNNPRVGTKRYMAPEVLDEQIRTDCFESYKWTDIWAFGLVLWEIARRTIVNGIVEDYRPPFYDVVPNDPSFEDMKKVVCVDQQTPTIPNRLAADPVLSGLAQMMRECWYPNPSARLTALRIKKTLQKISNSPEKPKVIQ
To be noted: 10 µM, n=1; kinase ACVRL1; read-out: Percent inhibition ACVRL1. In outline:
as §1

Test [7] concerns the target T7, panel of 203 kinases (Homo sapiens, UniProt P08631).
T7 construct: purchased DiscoverX (KINOMEscan)
The following applies: 10 µM, n=1; kinase HCK; read-out: Percent inhibition HCK. In outline: as §1

For test [8], the target named is T8, panel of 203 kinases (Homo sapiens, UniProt P11362).
T8 construct: purchased DiscoverX (KINOMEscan)
The following applies: 10 µM, n=1; kinase FGFR1; read-out: Percent inhibition FGFR1. In outline: as §1

In test [9] the target is T9, panel of 203 kinases (Homo sapiens, UniProt P49840).
T9 construct: purchased DiscoverX (KINOMEscan)
T9 sequence (P49840 whole entry): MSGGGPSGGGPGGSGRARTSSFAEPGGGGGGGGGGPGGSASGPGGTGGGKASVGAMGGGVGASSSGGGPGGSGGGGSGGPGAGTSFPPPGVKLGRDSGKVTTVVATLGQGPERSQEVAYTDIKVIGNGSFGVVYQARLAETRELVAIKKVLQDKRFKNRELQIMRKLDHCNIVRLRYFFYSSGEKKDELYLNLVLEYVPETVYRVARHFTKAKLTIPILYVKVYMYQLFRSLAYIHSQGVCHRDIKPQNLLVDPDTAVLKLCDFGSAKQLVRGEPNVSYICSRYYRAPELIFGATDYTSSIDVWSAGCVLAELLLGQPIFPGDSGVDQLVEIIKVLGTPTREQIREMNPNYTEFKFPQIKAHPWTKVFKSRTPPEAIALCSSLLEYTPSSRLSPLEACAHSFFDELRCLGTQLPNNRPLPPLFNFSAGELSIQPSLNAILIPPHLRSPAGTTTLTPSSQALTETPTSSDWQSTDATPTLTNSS
To be noted: 10 µM, n=1; kinase GSK3A; read-out: Percent inhibition GSK3A. Summed up:
as §1

In test [10] the target is T10, panel of 203 kinases (Homo sapiens, UniProt O95819).
T10 construct: purchased DiscoverX (KINOMEscan)
T10 sequence (O95819 whole entry): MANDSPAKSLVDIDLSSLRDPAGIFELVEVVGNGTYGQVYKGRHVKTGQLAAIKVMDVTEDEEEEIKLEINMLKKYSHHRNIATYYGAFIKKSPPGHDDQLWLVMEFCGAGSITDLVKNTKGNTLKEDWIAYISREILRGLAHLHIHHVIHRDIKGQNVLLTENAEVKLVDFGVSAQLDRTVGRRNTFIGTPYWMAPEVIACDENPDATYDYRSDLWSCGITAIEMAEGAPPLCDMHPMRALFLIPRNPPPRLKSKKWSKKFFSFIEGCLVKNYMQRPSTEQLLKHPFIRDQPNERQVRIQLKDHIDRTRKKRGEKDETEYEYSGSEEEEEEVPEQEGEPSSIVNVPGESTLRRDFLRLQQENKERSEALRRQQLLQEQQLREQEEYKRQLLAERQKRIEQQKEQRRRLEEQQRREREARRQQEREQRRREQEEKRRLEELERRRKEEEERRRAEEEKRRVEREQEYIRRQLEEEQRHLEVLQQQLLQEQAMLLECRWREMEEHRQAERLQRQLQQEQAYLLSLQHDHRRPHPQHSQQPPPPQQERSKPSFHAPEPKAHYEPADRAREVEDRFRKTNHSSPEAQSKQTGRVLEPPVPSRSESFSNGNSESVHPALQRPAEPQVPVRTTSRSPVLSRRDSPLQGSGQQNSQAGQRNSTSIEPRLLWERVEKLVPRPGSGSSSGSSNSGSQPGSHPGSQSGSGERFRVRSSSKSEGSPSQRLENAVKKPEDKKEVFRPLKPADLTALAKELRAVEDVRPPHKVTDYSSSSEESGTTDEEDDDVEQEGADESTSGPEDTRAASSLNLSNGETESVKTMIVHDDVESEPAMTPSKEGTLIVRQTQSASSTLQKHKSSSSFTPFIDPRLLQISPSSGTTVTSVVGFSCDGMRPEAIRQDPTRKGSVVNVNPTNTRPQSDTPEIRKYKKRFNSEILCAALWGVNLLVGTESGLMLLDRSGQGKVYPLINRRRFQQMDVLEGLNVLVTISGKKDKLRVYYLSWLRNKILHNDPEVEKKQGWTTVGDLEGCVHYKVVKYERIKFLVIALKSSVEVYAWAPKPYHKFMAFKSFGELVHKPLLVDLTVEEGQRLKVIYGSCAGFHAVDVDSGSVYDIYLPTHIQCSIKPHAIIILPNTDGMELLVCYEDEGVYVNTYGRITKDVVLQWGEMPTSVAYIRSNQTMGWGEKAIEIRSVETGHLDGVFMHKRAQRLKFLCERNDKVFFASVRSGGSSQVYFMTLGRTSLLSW
The following applies: 10 µM, n=1; kinase MAP4K4; read-out: Percent inhibition MAP4K4. Summed up: as §1

Test [11] deals with T11, panel of 203 kinases (Homo sapiens, UniProt Q9UEE5).
T11 construct: purchased DiscoverX (KINOMEscan)
T11 sequence (Q9UEE5 1-414): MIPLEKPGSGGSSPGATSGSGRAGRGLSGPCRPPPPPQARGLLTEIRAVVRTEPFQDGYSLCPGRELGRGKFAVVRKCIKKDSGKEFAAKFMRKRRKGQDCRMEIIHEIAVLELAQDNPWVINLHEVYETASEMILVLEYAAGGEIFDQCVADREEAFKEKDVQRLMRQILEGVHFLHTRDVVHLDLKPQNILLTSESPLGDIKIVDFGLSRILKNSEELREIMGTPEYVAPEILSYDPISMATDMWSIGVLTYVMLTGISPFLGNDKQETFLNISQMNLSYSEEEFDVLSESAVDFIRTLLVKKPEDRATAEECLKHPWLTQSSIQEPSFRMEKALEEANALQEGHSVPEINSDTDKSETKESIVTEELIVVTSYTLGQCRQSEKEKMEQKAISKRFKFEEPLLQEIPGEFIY
To be noted: 10 µM, n=1; kinase DRAK1; read-out: Percent inhibition DRAK1. In outline: as §1

Test [12] concerns the target T12, panel of 203 kinases (Homo sapiens, UniProt P28482).
T12 construct: purchased DiscoverX (KINOMEscan)
To be noted: 10 µM, n=1; kinase ERK2; read-out: Percent inhibition ERK2. In outline:
as §1

Test [13] has as its target T13, panel of 203 kinases (Homo sapiens, UniProt Q9Y6E0).
T13 construct: purchased DiscoverX (KINOMEscan)
The following applies: 10 µM, n=1; kinase MST3; read-out: Percent inhibition MST3. In outline: as §1

The structures appear in SMILES notation.

T7 sequence (P08631 whole entry): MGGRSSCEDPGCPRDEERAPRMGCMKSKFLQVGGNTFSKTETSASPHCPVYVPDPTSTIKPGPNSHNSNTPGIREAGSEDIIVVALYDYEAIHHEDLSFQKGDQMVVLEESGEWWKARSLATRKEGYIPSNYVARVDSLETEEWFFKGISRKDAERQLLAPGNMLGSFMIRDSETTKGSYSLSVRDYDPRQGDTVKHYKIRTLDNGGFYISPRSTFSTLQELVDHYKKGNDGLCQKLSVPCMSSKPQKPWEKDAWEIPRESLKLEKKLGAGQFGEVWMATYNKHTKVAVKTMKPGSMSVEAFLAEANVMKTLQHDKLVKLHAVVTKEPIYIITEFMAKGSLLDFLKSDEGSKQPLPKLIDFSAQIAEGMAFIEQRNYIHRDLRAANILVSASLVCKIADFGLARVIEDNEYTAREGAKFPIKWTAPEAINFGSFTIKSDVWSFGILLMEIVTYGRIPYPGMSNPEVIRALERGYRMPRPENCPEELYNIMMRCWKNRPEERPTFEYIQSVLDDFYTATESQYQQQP
T3 sequence (Q9P0L2 whole entry): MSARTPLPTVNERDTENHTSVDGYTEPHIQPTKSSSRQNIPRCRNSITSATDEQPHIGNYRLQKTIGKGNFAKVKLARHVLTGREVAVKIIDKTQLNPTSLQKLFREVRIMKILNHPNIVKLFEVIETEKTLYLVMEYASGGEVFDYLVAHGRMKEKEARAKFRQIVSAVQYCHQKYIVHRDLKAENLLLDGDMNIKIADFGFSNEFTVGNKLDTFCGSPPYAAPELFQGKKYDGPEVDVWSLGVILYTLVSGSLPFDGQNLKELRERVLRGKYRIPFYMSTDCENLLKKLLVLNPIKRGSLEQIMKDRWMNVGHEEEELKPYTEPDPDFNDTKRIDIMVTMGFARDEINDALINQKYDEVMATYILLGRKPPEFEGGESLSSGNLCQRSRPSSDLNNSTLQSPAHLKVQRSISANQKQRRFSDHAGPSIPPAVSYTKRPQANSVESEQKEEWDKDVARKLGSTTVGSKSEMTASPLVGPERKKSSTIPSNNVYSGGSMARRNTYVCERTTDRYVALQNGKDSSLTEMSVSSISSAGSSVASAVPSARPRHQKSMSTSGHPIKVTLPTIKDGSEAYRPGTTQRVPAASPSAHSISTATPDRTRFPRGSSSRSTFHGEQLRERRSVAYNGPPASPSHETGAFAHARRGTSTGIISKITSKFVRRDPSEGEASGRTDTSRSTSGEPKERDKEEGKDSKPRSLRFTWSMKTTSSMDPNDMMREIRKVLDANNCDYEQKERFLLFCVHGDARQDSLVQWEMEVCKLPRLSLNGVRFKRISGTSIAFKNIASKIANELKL
T12 sequence (P28482 whole entry): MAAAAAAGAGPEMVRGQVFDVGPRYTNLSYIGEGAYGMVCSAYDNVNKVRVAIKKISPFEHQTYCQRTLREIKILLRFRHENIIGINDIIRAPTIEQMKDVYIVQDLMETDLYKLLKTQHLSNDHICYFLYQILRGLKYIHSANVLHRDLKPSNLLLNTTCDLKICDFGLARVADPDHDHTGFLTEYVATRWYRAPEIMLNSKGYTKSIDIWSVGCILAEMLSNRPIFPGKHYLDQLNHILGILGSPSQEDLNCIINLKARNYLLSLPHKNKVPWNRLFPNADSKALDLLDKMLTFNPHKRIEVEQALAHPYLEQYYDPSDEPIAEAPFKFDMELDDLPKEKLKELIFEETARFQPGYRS

Turning to `Nc1ncc2c(-c3ccncc3)c[nH]c2n1` [Compound 11], the inhibition (usually the drop in the measured response relative to a control, in per cent) at 10 µM is 0% at panel of 203 kinases [1]; 89.7% at panel of 203 kinases [2]; 0% on panel of 203 kinases [3]; 0% at panel of 203 kinases [4]; 0% at panel of 203 kinases [5]; 0% at panel of 203 kinases [6]. For the same compound, the inhibition at 10 µM was 66.9% at panel of 203 kinases [7]; 0% at panel of 203 kinases [8]; 0% on panel of 203 kinases [9]; 84.2% at panel of 203 kinases [10]; 92.8% at panel of 203 kinases [11]; 0% on panel of 203 kinases [12]. Also, the inhibition at 10 µM at panel of 203 kinases [13] came out at 68.2%.
